Publication PMC7605555 (bioRxiv, 2020)
Values joined by “and” are separate entries in the source; they are usually repeats but may differ in a detail not shown here. Identical values can stand only once.

Assays:
SARS-CoV-2 [1] = format: cell-based
Vero E6 cells = test: Cytotoxicity, WST-1 cell proliferation assay; format: cell-based, African green monkey; conditions: for concentration at which cytotoxic: Vero E6 cells
SARS-CoV-2 [2] = format: cell-based; conditions: 5 μM, 48 hours, anti-N and anti-S staining
SARS-CoV-2 [3] = test: Plaque assay on A549^ACE2 cells with ethacridine-treated virus; format: cell-based; conditions: 5 uM, 1 hr pre-incubation
[4] = 20 mg/kg, i.p. injection; cited from earlier work
[5] = rat, mice and rabbits; cited from earlier work
SARS-CoV-2 viral RNA = test: Viral RNA quantification by qRT-PCR in Vero cells and supernatant; format: cell-based; conditions: 5 μM
[6] = target: SARS-CoV-2 main protease Mpro (Severe acute respiratory syndrome coronavirus 2, UniProt P0DTD1); test: cell-based; conditions: IC50 in inhibiting Mpro
SARS-CoV-2 [7] = format: cell-based; conditions: virus treated with 5 μM for 1 hour, MOI = 100, Vero E6
SARS-CoV-2 [8] = test: Viral particle inactivation / time-of-addition, plaque assay on Vero E6 cells; format: cell-based

## O=c1c2ccccc2[se]n1-c1ccccc1 [ebselen]
SARS-CoV-2 [1]
  reduction in viral titer: ~ 2 log

## C[C@@H](NCCCc1cccc(C(F)(F)F)c1)c1cccc2ccccc12 [Cinacalcet, cinacalcet]
SARS-CoV-2 [1]
  reduction in viral titer: ~ 1 log

## CC(=O)[C@@]1(O)CC[C@H]2[C@@H]3CCC4=CC(=O)CC[C@]4(C)[C@H]3CC[C@@]21C [Hydroxyprogesterone, hydroxyprogesterone]
SARS-CoV-2 [1]
  reduction in viral titer: ~ 1 log

## verteporfin
Vero E6 cells
  concentration at which cytotoxic: 5 to 13 µM

## ivermectin
Vero E6 cells
  concentration at which cytotoxic: 5 to 13 µM

## CCC(CC)COC(=O)[C@H](C)N[P@](=O)(OC[C@H]1O[C@@](C#N)(c2ccc3c(N)ncnn23)[C@H](O)[C@@H]1O)Oc1ccccc1 [Remdesivir, remdesivir]
SARS-CoV-2 [1]
  reduction in viral titer: ~ 4 log

## COc1ccc2c(O[C@@H]3C[C@H]4C(=O)N[C@]5(C(=O)NS(=O)(=O)C6CC6)C[C@H]5/C=C\CCCCN(C)C(=O)[C@@H]4C3)cc(-c3nc(C(C)C)cs3)nc2c1C [Simeprevir, simeprevir]
SARS-CoV-2 [1]
  reduction in viral titer: ~ 4 log

## CCOc1ccc2nc3cc(N)ccc3c(N)c2c1 [Ethacridine, ethacridine]
Vero E6 cells; Vero E6 (Fig. 3e)
  cell toxicity: very little cell toxicity
SARS-CoV-2 [2]
  proportion of infected primary nasal cells: dramatically decreased
SARS-CoV-2 [3]
  infectivity of drug-treated virus on A549^ACE2 cells: dramatic decrease in infectivity
[4]
  toxicity in mice: no toxicity
[5]
  toxicity in animal models: non-toxic
SARS-CoV-2 viral RNA; drug added after binding and entry, supernatant and cells
  change of viral RNA (vRNA) levels, DMSO + Eth.: no change
SARS-CoV-2 viral RNA; drug present continuously, supernatant and within the cells
  reduction in vRNA copies, Eth. + Eth.: 4 – 5 fold
[6]
  IC50: ~3.54 µM and ~3.5 µM
SARS-CoV-2 [1]
  reduction in viral titer: 5 – 6 log
SARS-CoV-2 [7]
  detectable anti-N and anti-S fluorescence on cells: dramatic reduction
SARS-CoV-2 [8]; 5 μM, drug added after viral entry
  reduction in viral titer, DMSO + Eth.: 3 – 4 logs
SARS-CoV-2 [8]; 5 μM, drug present continuously prior to plaque assay, versus DMSO + DMSO
  reduction in viral titer, Eth. + Eth.: 3 – 4 logs
SARS-CoV-2 [8]; 5 μM, plaque assay
  reduction in viral titer, Eth. + Eth.: 2400 fold
SARS-CoV-2 [8]; virus pre-incubated with drug 1 hr, plaque assay without drug
  reduction in infectivity, Eth. [1 hr]: 3 – 4 logs
